Structures can show the parent of a compound that is named as a salt.
Target: TrkA (Homo sapiens (Human), UniProt P04629)
Experiment: TrkA Omnia Assay
Type: biochemical
Conditions: averaged IC50; 20 nM enzyme, 500 μM ATP, 10 μM peptide substrate
Description: Trk enzymatic selectivity was assessed using Omnia™ Kinase Assay reagents from Invitrogen Corp. Enzyme (TrkA from Invitrogen Corp.) and test compound (various concentrations) were incubated for 10 minutes at ambient temperature in a 384-well white polypropylene plate (Nunc catalog#267462). Omnia Tyr Peptide #4, as well as ATP, were then added to the plate. Final concentrations were as follows: 20 nM enzyme, 500 μM of ATP, 10 μM peptide substrate. The assay buffer consisted of 25 mM MOPS pH 7.5, 0.005% (v/v) Triton X-100 and 5 mM MgCl2. The production of phosphorylated peptide was monitored continuously for 70 minutes using a Molecular Devices FlexStation II^384 microplate reader (excitation=360 nm; emission=485 nm). Initial rates were calculated from the progress curves. IC50 values were calculated from these rates using either a 4 or 5-parameter logistic curve fit.

Sequence of TrkA (P04629 33-796): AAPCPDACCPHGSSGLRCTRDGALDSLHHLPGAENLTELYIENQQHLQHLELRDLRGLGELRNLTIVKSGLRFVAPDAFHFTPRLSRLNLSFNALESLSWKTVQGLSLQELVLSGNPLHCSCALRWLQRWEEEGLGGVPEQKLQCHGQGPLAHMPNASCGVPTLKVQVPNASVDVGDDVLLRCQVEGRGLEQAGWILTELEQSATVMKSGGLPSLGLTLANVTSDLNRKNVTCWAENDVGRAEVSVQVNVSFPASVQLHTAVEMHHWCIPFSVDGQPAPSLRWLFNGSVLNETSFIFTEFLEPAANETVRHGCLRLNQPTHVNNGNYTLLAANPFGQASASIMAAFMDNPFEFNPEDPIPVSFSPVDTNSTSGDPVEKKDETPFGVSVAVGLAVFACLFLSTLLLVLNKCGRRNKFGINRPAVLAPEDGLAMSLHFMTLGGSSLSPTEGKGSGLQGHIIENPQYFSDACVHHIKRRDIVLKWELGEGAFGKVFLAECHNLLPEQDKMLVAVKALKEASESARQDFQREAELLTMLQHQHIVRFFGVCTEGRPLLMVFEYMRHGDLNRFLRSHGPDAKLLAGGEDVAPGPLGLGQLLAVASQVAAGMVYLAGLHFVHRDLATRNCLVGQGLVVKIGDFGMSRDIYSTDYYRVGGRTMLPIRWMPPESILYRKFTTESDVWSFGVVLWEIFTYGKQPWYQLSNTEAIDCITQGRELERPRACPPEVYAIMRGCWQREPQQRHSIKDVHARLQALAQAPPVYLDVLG

First: 1-((3S,4R)-4-(3,4- fluorophenyl)-1-(2- methoxyethyl)pyrrolidin-3-yl)- 3-(1-(3-chlorophenyl)-1′,4- dimethyl-1H,1′H-[3,4′- bipyrazol]-5-yl)urea [Example 321]
Second: COCCN1C[C@@H](NC(=O)Nc2cc(C(C)(C)C)nn2-c2ccc(C)cc2)[C@H](c2ccccc2)C1 (relative stereo) [Example 2, 1-(3-tert-butyl-1-p-tolyl-1H-pyrazol-5-yl)-3-(trans-1-(2-methoxyethyl)-4-phenylpyrrolidin-3-yl) urea hydrochloride]
The IC50 of the first is lower: under 100 nM for the first, 1000 to 10000 nM for the second.

`COCCN1C[C@@H](NC(=O)Nc2c3c(nn2-c2ccccc2)CCC3)[C@H](c2ccc(F)c(F)c2)C1` (relative stereo) [Example 3, trans-1-(4-(3,4-difluorophenyl)-1-(2-methoxyethyl)pyrrolidin-3-yl)-3-(2-phenyl-2,4,5,6-tetrahydrocyclopenta[c]pyrazol-3-yl)urea] and `COCCN1C[C@@H](NC(=O)Nc2cc(C(C)C)nn2-c2ccccc2)[C@H](c2ccc(F)c(F)c2)C1` (relative stereo) [Example 4, trans-1-(4-(3,4-difluorophenyl)-1-(2-methoxyethyl)pyrrolidin-3-yl)-3-(3-isopropyl-1-phenyl-1H-pyrazol-5-yl) urea] cannot be ordered by IC50: under 100 nM for the first, under 100 nM for the second.

`COCCN1C[C@@H](NC(=O)Nc2cc(C(C)(C)C)nn2C)[C@H](c2ccccc2)C1` (relative stereo) [Example 5, 1-(3-tert-butyl-1-methyl-1H-pyrazol-5-yl)-3-(trans-1-(2-methoxyethyl)-4-phenylpyrrolidin-3-yl) urea] and `COCCN1C[C@@H](NC(=O)Nc2cc(C)nn2C)[C@H](c2ccccc2)C1` (relative stereo) [Example 6, 1-(1,3-dimethyl-1H-pyrazol-5-yl)-3-(trans-1-(2-methoxyethyl)-4-phenylpyrrolidin-3-yl) urea] fall in the same range of IC50: 1000 to 10000 nM for the first, 1000 to 10000 nM for the second.

First: COCCN1C[C@@H](NC(=O)Nc2cc(C(C)(C)C)nn2-c2cccnc2)[C@H](c2ccccc2)C1 (relative stereo) [Example 7, 1-(3-tert-butyl-1-(pyridin-3-yl)-1H-pyrazol-5-yl)-3-(trans-1-(2-methoxyethyl)-4-phenylpyrrolidin-3-yl) urea]
Second: COCCN1C[C@@H](NC(=O)Nc2cc(C(C)(C)C)nn2-c2ccc(F)cc2)[C@H](c2ccccc2)C1 (relative stereo) [Example 8, 1-(3-tert-butyl-1-(4-fluorophenyl)-1H-pyrazol-5-yl)-3-(trans-1-(2-methoxyethyl)-4-phenyl-pyrrolidin-3-yl)urea]
The IC50 of the first is higher: 1000 to 10000 nM for the first, 100 to 1000 nM for the second. The second is the more potent here.

`COCCN1C[C@@H](NC(=O)Nc2cc(C3CC3)nn2-c2ccccc2)[C@H](c2ccccc2)C1` (relative stereo) [Example 9, 1-(3-cyclopropyl-1-phenyl-1H-pyrazol-5-yl)-3-(trans-1-(2-methoxyethyl)-4-phenylpyrrolidin-3-yl)urea] and `COCCN1C[C@@H](NC(=O)Nc2cc(-c3ccccc3)nn2-c2ccccc2)[C@H](c2ccccc2)C1` (relative stereo) [Example 10, 1-(1,3-diphenyl-1H-pyrazol-5-yl)-3-(trans-1-(2-methoxyethyl)-4-phenylpyrrolidin-3-yl)urea] cannot be ordered by IC50: under 100 nM for the first, under 100 nM for the second.

`COCCN1C[C@@H](NC(=O)Nc2cc(C)nn2-c2ccccc2)[C@H](c2ccccc2)C1` (relative stereo) [Example 11, 1-(trans-1-(2-methoxyethyl)-4-phenylpyrrolidin-3-yl)-3-(3-methyl-1-phenyl-1H-pyrazol-5-yl)urea] and `COCCN1C[C@@H](NC(=O)Nc2cc(C(C)C)nn2-c2ccccc2)[C@H](c2ccccc2)C1` (relative stereo) [Example 12, 1-(3-isopropyl-1-phenyl-1H-pyrazol-5-yl)-3-(trans-1-(2-methoxyethyl)-4-phenylpyrrolidin-3-yl)urea] cannot be ordered by IC50: under 100 nM for the first, under 100 nM for the second.

`COCCN1C[C@@H](NC(=O)Nc2cc(-c3ccccc3)nn2C)[C@H](c2ccccc2)C1` (relative stereo) [Example 13, 1-(trans-1-(2-methoxyethyl)-4-phenylpyrrolidin-3-yl)-3-(1-methyl-3-phenyl-1H-pyrazol-5-yl)urea] and `COCCN1C[C@@H](NC(=O)Nc2c3c(nn2-c2ccccc2)CCC3)[C@H](c2ccccc2)C1` (relative stereo) [Example 14, 1-(trans-1-(2-methoxyethyl)-4-phenylpyrrolidin-3-yl)-3-(2-phenyl-2,4,5,6-tetrahydrocyclopenta[c]pyrazol-3-yl)urea] cannot be ordered by IC50: under 100 nM for the first, under 100 nM for the second.

First: COCCN1C[C@@H](NC(=O)Nc2ccnn2-c2ccccc2)[C@H](c2ccccc2)C1 (relative stereo) [Example 15, 1-(trans-1-(2-methoxyethyl)-4-phenylpyrrolidin-3-yl)-3-(1-phenyl-1H-pyrazol-5-yl)urea]
Second: COCCN1C[C@@H](NC(=O)Nc2cc(C(C)(C)C)nn2-c2ccccc2F)[C@H](c2ccccc2)C1 (relative stereo) [Example 16, 1-(3-tert-butyl-1-(2-fluorophenyl)-1H-pyrazol-5-yl)-3-(trans-1-(2-methoxyethyl)-4-phenylpyrrolidin-3-yl)urea]
The IC50 of the first is lower: 100 to 1000 nM for the first, 1000 to 10000 nM for the second.

Compared with `COCCN1C[C@@H](NC(=O)Nc2cc(C(C)(C)C)nn2-c2cccc(F)c2)[C@H](c2ccccc2)C1` (relative stereo) [Example 17, 1-(3-tert-butyl-1-(3-fluorophenyl)-1H-pyrazol-5-yl)-3-(trans-1-(2-methoxyethyl)-4-phenylpyrrolidin-3-yl)urea], `COCCN1C[C@@H](NC(=O)Nc2c(C)c(C)nn2-c2ccccc2)[C@H](c2ccccc2)C1` (relative stereo) [Example 18, 1-(3,4-dimethyl-1-phenyl-1H-pyrazol-5-yl)-3-(trans-1-(2-methoxyethyl)-4-phenylpyrrolidin-3-yl)urea] is lower in IC50: 100 to 1000 nM for the first, under 100 nM for the second. The second is the more potent here.

First: COCCN1C[C@@H](NC(=O)Nc2c3c(nn2-c2cccnc2)CCC3)[C@H](c2ccccc2)C1 (relative stereo) [Example 19, 1-(trans-1-(2-methoxyethyl)-4-phenylpyrrolidin-3-yl)-3-(2-(pyridin-3-yl)-2,4,5,6-tetrahydrocyclopenta[c]pyrazol-3-yl)urea]
Second: COCCN1C[C@@H](NC(=O)Nc2ccnn2C)[C@H](c2ccccc2)C1 (relative stereo) [Example 20, 1-(trans-1-(2-methoxyethyl)-4-phenylpyrrolidin-3-yl)-3-(1-methyl-1H-pyrazol-5-yl)urea]
The IC50 of the first is lower: 100 to 1000 nM for the first, 1000 to 10000 nM for the second.

`COCCN1C[C@@H](NC(=S)Nc2c3c(nn2-c2ccccc2)CCC3)[C@H](c2ccccc2)C1` (relative stereo) [Example 21, 1-(trans-1-(2-methoxyethyl)-4-phenylpyrrolidin-3-yl)-3-(2-phenyl-2,4,5,6-tetrahydrocyclopenta[c]pyrazol-3-yl)thiourea] and `COCCN1C[C@@H](NC(=O)Nc2c3c(nn2-c2cccc(F)c2)CCC3)[C@H](c2ccccc2)C1` (relative stereo) [Example 22, 1-(2-(3-fluorophenyl)-2,4,5,6-tetrahydrocyclopenta[c]pyrazol-3-yl)-3-(trans-1-(2-methoxyethyl)-4-phenylpyrrolidin-3-yl)urea] cannot be ordered by IC50: under 100 nM for the first, under 100 nM for the second.

In the case of `COCCN1C[C@@H](NC(=O)Nc2c3c(nn2-c2ccc(F)cc2)CCC3)[C@H](c2ccccc2)C1` (relative stereo) [Example 23, 1-(2-(4-fluorophenyl)-2,4,5,6-tetrahydrocyclopenta[c]pyrazol-3-yl)-3-(trans-1-(2-methoxyethyl)-4-phenylpyrrolidin-3-yl)urea], the IC50 is reported as under 100 nM.

— patent US10323022B2, “Pyrrolidinyl urea, pyrrolidinyl thiourea and pyrrolidinyl guanidine compounds as TrkA kinase inhibitors” (Array BioPharma Inc., priority 2011, dated 2019)
